The values that follow are results of earlier work, collected in patent US20100029729A1, “COMPOUNDS” (priority 2008, published 2010).

Data set [1] concerns circulating lymphocytes. As to conditions: animals and man.
The conditions of data set [2]: clinical studies, first 24 hours of treatment.

Consider `CCCCCCCCc1ccc(CCC(N)(CO)CO)cc1` [FTY720], for which the “effect on circulating lymphocytes” value in data set [1] was “reduce circulating lymphocytes in animals and man”. The bradycardia result in data set [2] is listed as “results in bradycardia in the first 24 hours of treatment”.
